Experimental data published in Sander's compilation of Henry's law constants (doi:10.1021/es970763v).

Assay: Henry solubility constant Hcp at 298.15 K (mol/(m3 Pa))
Conditions: reference: Welke et al. (1998)

Structure (SMILES)	Henry solubility constant Hcp
c1ccccc1 [benzene]	0.0016
ClCCl [dichloromethane]	3.7
CC#N [ethanenitrile]	0.34
Clc1ccccc1 [chlorobenzene]	0.0027
CCCCOC(C)=O [butyl ethanoate]	0.027
C=CC#N [2-propenenitrile]	0.031
CCC[N+](=O)[O-] [1-nitropropane]	0.16
Cc1ccccc1 [methylbenzene]	0.0014
C=C(C)C1CC=C(C)CC1 (stereo not drawn) [1-methyl-4-(1-methylethenyl)-cyclohexene]	0.00024
C=CCCl [3-chloro-1-propene]	0.0037
Cc1ccccc1C [1,2-dimethylbenzene]	0.0022
ClCC1CO1 (stereo not drawn) [(chloromethyl)-oxirane]	0.29
CCOC(C)=O [ethyl ethanoate]	0.034
CCCOC(C)=O [propyl ethanoate]	0.037
CC(C)=O [propanone]	0.096
C=Cc1ccccc1 [ethenylbenzene]	0.0025
CC(=O)CC(C)C [4-methyl-2-pentanone]	0.047
CC(Cl)CCl (stereo not drawn) [1,2-dichloropropane]	0.0055
